Experimental findings from patent US20230137092A1, “Composition and Method for the Treatment and Prevention of Cardiac, Pulmonary, Dermal, and Renal Fibrosis” (EMERALD HEALTH PHARMACEUTICALS INC., priority 2020, published 2023) are described below.

In one assay the test system is E2F pathway. The assay can be described thus: Real-time quantitative PCR of E2F pathway markers in cardiac tissue, Ang II preventive model. It is filed as in vivo, mouse. Particulars: Ang II mice; #p<0.05 versus Ang II group.
The test system of assay [1] is Ang II-induced dermal fibrosis. The assay can be described thus: Ang II-induced dermal fibrosis, preventive model, Sirius Red. The assay is classed as in vivo, mouse. The settings on record: Ang II 1.0 mg kg^- min^- two weeks, 20 mg/kg oral gavage. The protocol:
The local renin angiotensin system exists in almost all organs, including skin. Ang II induces fibrosis in the skin via accumulation of activated fibroblasts. Dermal fibrosis was induced in mice by infusion of Ang II (1.0 mg kg^− min^−) for two weeks. The treatment with the compound of Formula (VIII) by oral gavage was the same as describe in Example 2. After two weeks of treatment, the mice were sacrificed under ether anesthesia. Skin samples were collected and fixed in 4% paraformaldehyde and embedded in paraffin. Skin sections (5 μm) were stained with Sirius Red for evaluation of fibrosis. Subcutaneous Ang II infusion induced a significant increase of collagen content and in the mice treated with compound, the induction of fibrosis in the skin is prevented (FIG. 11).

The subject of assay [2] is Ang II-induced aortic fibrosis. Put plainly: Ang II therapeutic model: aorta adventitial collagen, Sirius red. The assay is classed as in vivo, mouse. The settings on record: Ang II four weeks, 20 mg/kg oral last two weeks, ###p<0.001 versus Ang II group. The protocol: (§1) For the therapeutic model, infusion of Ang II for four weeks and the compound of Formula (VIII) (20 mg/kg) was administrated after two weeks of pump implantation. Subcutaneous infusion of Ang II using ALZET osmotic minipumps was used to study the preventive effects of the compound ALZET® osmotic minipumps (Model #2004, Charles Rives, Barcelona, Spain) delivering of Ang II (500 ng kg^−1 min^−1) (Sigma-Aldrich, Madrid, Spain) for four weeks. Compound treatment was daily administered in parallel, two weeks after the implantation of the subcutaneous pump, beneath the midscapular loose skin and consisted of daily oral gavage of compound of Formula (VIII) (20 mg/kg) or vehicle (Corn Oil/Maisine CC, 1/1). Mice were acclimated to manipulators for a week previously to the experiments in order to reduce stress and allow the detection of subtle changes in behavior by researchers. […] Neither piloerection nor hunched appearances were appreciated during the experimental procedures. Mice were sacrificed by cervical dislocation and the heart, aorta, kidney, and lung were removed and processed for histological examination or were frozen for further analysis.

In assay [3] the test system is Ang II-induced renal fibrosis. The assay can be described thus: Ang II therapeutic model: renal fibrosis, Sirius red. It is filed as in vivo, mouse. The settings on record: Ang II four weeks, 20 mg/kg oral last two weeks, #p<0.05 versus Ang II group. The protocol: as §1
The subject of assay [4] is Ang II-induced pulmonary fibrosis. The assay can be described thus: Ang II therapeutic model: lung fibrosis, Masson's trichrome, Ashcroft score. The assay is classed as in vivo, mouse. Particulars: Ang II four weeks, 20 mg/kg oral last two weeks, ###p<0.001 versus Ang II group. The protocol: Lung fibrosis was induced in mice by infusion of Ang II (500 ng kg^− min^−) for four weeks. The treatment with the compound of Formula (VIII) by oral gavage was the same as describe in Example 9. After two weeks of treatment, the mice were sacrificed under ether anesthesia. Lung samples were collected and fixed in 4% paraformaldehyde and embedded in paraffin. The paraffin sections (5 μm) were stained with Masson's trichrome (Merck Millipore, Darmstadt, Germany) for evaluation of fibrosis. Three-four random fields of each lung biopsy were photographed, digitalized using a Leica DFC420c camera and analyzed using Image J software in a blinded manner by two independent observers. The Ashcroft score was used to determine the degree of fibrosis in lung specimens as previously described (Ashcroft T et al., 1988, Clin. Pathol., 41:467-470; Hubner R H et al., 2008, Biotechniques, 44:507-511). Subcutaneous Ang II infusion induced pulmonary fibrosis which is prevented with compound (FIG. 15).

The subject of assay [5] is human immortalized cardiac fibroblasts (hICF). Put plainly: Fibroblast differentiation into myofibroblasts: α-SMA expression in hICF. It is filed as cell-based. Particulars: hICF treated with TGF-β or Ang II; pretreatment with compound. The text has this: The profibrotic activity of Ang II on cardiac fibroblasts in vitro and in vivo has been extensively documented (H. H. Sigusch et al., 1996, Cardiovasc Res, 31:546-554). To study myofibroblast differentiation in vitro, immortalized cardiac fibroblasts (hICF) were stained with for α-SMA expression, a specific marker for myofibroblasts differentiation. Immortalized primary human cardiac fibroblasts (hICF) with SV40 Large T antigen were obtained from Innoprot SL (Derio, Spain) and cultured in low passages (<5 passages). The cells were maintained in a humidified atmosphere at 37° C. containing 5% CO2, 10% fetal bovine serum (FBS) and 1% (v/v) penicillin/streptomycin in Fibroblast Medium-2 (P60108-2, Innoprot, Derio, Spain). Ang II was purchased from Sigma-Aldrich Co (A9525, Sigma, Madrid, Spain) and TGFb1 (Transforming Growth Factor-b)-1 (10 ng/mL) was obtained from ImmunoTools GmbH (Friesoythe, Germany). Both TGF-β and Ang II induced α-SMA protein expression in cultured hICF and pretreatment with compound of Formula (VIII) decreased α-SMA expression. The differentiation to myofibroblast was associated with morphological changes of cellular hypertrophy.

In a further assay the test system is NFAT. The assay can be described thus: Gal4-NFAT / Gal4-Luc reporter assay in hICF. It is filed as cell-based, human. Particulars: hICF transfected with Gal4-Luc and Gal4-NFAT, stimulated 6 hours. The method, then: hICF cells were transiently transfected for 24 hours with the Gal4-Luc reporter plasmid (which includes five Gal4 DNA binding sites fused to the luciferase gene) and the Gal4-NFAT1-415plasmid for 24 hours using Roti-Fect (Carl Roth GmbH & Co. KG, Karlsruhe, Germany). Then cells were stimulated for 6 hours and luciferase activity in the cell lysates was measured. The specific transactivation expressed as a percentage of activation relative to control. Compound of Formula (VIII) inhibited Ang II-induced NFAT activation (FIG. 16B).
On the technique in general: In a reporter assay the amount or activity of a reporter protein is the signal.

As for `C=C(C)C1CCC(C)=C[C@H]1C1=C(O)C(=O)C(CCCCC)=C(NCc2ccccc2)C1=O` (stereo partly drawn) [Formula (VIII)], in the assay on E2F pathway, the “CDK1 gene expression in cardiac tissue” value is given as “down regulated”, the “MKi67 gene expression in cardiac tissue” value is reported as “down regulated” and the “TOP2A gene expression in cardiac tissue” value is reported as “down regulated”. Also, the “induction of fibrosis in the skin (collagen content)” value in assay [1] is “prevented”. Besides, the “aorta collagen content in adventitial layer” value in assay [2] is “antifibrotic activity”. Also, in assay [3], the “renal fibrosis (collagen accumulation in kidney)” value is recorded as “reduced”. Moreover, the “lung fibrosis (Ashcroft score)” value in assay [4] is “reduced”. The α-SMA expression entry in assay [5] is given as “decreased”. For the same compound, in the assay with NFAT, the “Ang II-induced NFAT activation (luciferase)” value is given as “inhibited”.
